Measured values from patent US20250163059A1, “HETEROCYCLIC KINASE INHIBITORS” (Incyte Corporation, priority 2023, published 2025).

Columns and labels:
[1] = molecular target: T1, catalytic domain (JH1) of JAK2 protein (Homo sapiens, UniProt O60674); assay: JAK2 (JH1) Enzymatic Assay at ATP=Km (30 μM), TR-FRET; assay type: biochemical; details: 30 μM ATP (=Km), 60 min at 25° C., read-out: V617F ENZ 30 μM
T1 construct: phosphorylated on the tyrosine residue by catalytic domain (JH1) of JAK2 protein; purchased BPS 40450
T1 sequence (O60674 849-1124 limits assumed): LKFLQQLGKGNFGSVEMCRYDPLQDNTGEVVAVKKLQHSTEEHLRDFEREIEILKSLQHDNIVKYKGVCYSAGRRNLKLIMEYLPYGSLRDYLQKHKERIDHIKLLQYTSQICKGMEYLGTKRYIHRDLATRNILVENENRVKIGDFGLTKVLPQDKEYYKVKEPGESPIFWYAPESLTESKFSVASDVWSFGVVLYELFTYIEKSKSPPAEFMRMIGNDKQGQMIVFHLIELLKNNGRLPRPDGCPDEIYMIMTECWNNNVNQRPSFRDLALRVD
Procedure: Example A. JAK2 (JH1) Enzymatic Assay at ATP=Km (30 μM)
Inhibitor potency was determined in TR-FRET assay, which measures HTRF signal generated as a result of Eu-labeled anti-phosphotyrosine antibody binding to Biotin-labeled peptide, phosphorylated on the tyrosine residue by catalytic domain (JH1) of JAK2 protein in the presence of ATP-Mg and Allophycocyanin-streptavidin (APC-SA). JH1 domain of JAK2 protein was purchased from BPS (#40450), Eu-W1204-labeled Anti-Phosphotyrosine Antibody (PY-20) and SureLight Allophycocyanin-streptavidin were purchased from PerkinElmer (#AD0067 and #AD0201). Peptide Biot-EQEDEPEGDYFEWLEES-amide (SEQ ID NO.: 1) was purchased from Quality Controlled Biochemicals, MA (Q307-166). Assay buffer consisted of 50 mM Tris, pH=7.5, 10 mM MgCl2, 0.01% Brij-35, 0.1% BSA, 1 mM EGTA, 5% Glycerol and 5 mM DTT. To assess the inhibition of the enzymatic activity, compound was serially diluted in DMSO and a volume of 0.1 μL was transferred to the wells of a black regular volume 384-well plate (Greiner #781076) using Echo Liquid Handler (Labcyte Inc.). Positive and Negative control wells contained 0.1 μL of DMSO.
Enzyme (catalytic domain JH1 of JAK2) was diluted in assay buffer, and the Multidrop Combi liquid handler (Thermo Scientific) was used to dispense 10 μL to each well (except positive control wells, to which 10 μL of assay buffer were dispensed instead of protein).
Plate was centrifuged and reaction was started by addition of 10 μL of substrate solution containing biotinylated peptide and ATP to all wells. Plate was again centrifuged and enzymatic reaction was allowed to proceed for 60 min. at 25° C. Final concentrations in the assay were as follows: 0.02 nM protein, 30 uM ATP, 0.5 uM biotinylated peptide. Reaction was stopped by addition of 10 μL of solution, containing 45 mM EDTA, 144 nM APC/225 nM Streptavidin, and 4.5 nM Eu-Ab in detection buffer: 50 mM Tris, pH=7.8, 150 mM NaCl, 0.5 mg/ml BSA.
Plate was centrifuged and incubated for 30 min. at room temperature. HTRF signal was measured on PHERAstar plate reader instrument (BMG Labtech) with excitation at 337 nm and emissions at 620 nm and 665 nm. Data analysis tools integrated in Genedata Screener software were used to analyze the results. Raw data was normalized to percent of vehicle (DMSO) Negative control, after subtracting no-enzyme Positive inhibitor control. The IC50 values were derived by fitting the data to a four parameter logistic equation producing a sigmoidal dose-response curve using the following equation: Y=Bottom+(Top−Bottom)/(1+10^((Log IC50−X)*Hill slope)) where X is the logarithm of inhibitor concentration and Y is the response.

[2] = molecular target: T2, pseudo-kinase domain (JH2) of human V617F mutant JAK2 (Homo sapiens, UniProt O60674, F794H/V617F/W659A/W777A); assay: JAK2 LanthaScreen JH2-V617F Binding Assay; details: 50 nM Fluorescent JAK2-JH2 Tracer, 1 hour at 25° C., read-out: JH2 BIND V617F
T2 construct: pseudo-kinase domain (JH2, amino-acids 536-812 with 3 surface mutations W659A, W777A, F794H); purchased BPS Bioscience 79498; host or cells: baculovirus expression system
T2 sequence (O60674 536-812 V617F/W659A/W777A/F794H): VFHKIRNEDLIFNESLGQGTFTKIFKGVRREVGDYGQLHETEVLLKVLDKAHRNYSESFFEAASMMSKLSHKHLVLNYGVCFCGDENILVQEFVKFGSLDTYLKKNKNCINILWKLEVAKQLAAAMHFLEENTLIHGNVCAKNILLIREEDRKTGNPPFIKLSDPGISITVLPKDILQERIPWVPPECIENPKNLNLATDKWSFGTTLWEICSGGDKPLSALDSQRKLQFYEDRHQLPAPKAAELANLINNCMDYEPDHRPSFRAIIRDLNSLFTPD
Procedure: Example B. JAK2 LanthaScreen JH2-V617F Binding Assay
JAK2 JH2-V617F binding assay utilizes pseudo-kinase domain (JH2, amino-acids 536-812 with 3 surface mutations W659A, W777A, F794H) of human V617F mutant JAK2 expressed as C-terminal His-Avi-tagged, biotinylated protein in a baculovirus expression system (BPS Bioscience, Catalog #79498). The assay was conducted in black 384-well polystyrene plates in a final reaction volume of 20 μL. JAK2 JH2-V617F (0.26 nM) was incubated with compounds (100 nL serially diluted in DMSO) in the presence of 50 nM Fluorescent JAK2-JH2 Tracer (MedChem Express Catalog #HY-102055) and 0.25 nM Streptavidin-Tb cryptate (Cisbio Part #610SATLB) in assay buffer (50 mM Tris, pH=7.5, 10 mM MgCl2, 0.01% Brij-35, 0.1% BSA, 1 mM EGTA, 5% Glycerol and 5 mM DTT). Non-specific binding was accessed in the presence of 2 mM ATP. After incubation for 1 hour at 25° C., LanthaScreen signals were read on a PHERAstar FS plate reader (BMG LABTECH). Data was analyzed with IDBS XLfit and GraphPad Prism 5.0 software using a four parameter dose response curve to determine IC50 for each compound.

COc1c(-c2cnn(C3CN(Cc4cccc(C(=O)N(C)C)n4)C3)c2)cccc1-c1cnc(N)c2cnc(NC(=O)C3CC3)cc12 [Example 16, 6-((3-(4-(3-(1-Amino-6-(cyclopropanecarboxamido)-2,7-naphthyridin-4-yl)-2-methoxyphenyl)-1H-pyrazol-1-yl)azetidin-1-yl)methyl)-N,N-dimethylpicolinamide]
IC50 [1]: 10 to 100 nM
IC50 [2]: ≤ 10 nM

COc1c(-c2cnn(C3CN(Cc4cccc(C(=O)N(C)CC(F)(F)F)n4)C3)c2)cccc1-c1cnc(N)c2cnc(NC(=O)C3CC3)cc12 [Example 17, 6-((3-(4-(3-(1-Amino-6-(cyclopropane-carboxamido)-2,7-naphthyridin-4-yl)-2-methoxyphenyl)-1H-pyrazol-1-yl)azetidin-1-yl)methyl)-N-methyl-N-(2,2,2-trifluoroethyl) picolinamide]
IC50 [1]: 10 to 100 nM
IC50 [2]: ≤ 10 nM

COc1c(-c2cnn(C3CN(Cc4cccc(C(=O)N5CCCC5)n4)C3)c2)cccc1-c1cnc(N)c2cnc(NC(=O)C3CC3)cc12 [Example 18, N-(8-Amino-5-(2-methoxy-3-(1-(1-((6-(pyrrolidine-1-carbonyl)pyridin-2-yl)methyl)azetidin-3-yl)-1H-pyrazol-4-yl)phenyl)-2,7-naphthyridin-3-yl)cyclopropane-carboxamide]
IC50 [1]: 10 to 100 nM
IC50 [2]: ≤ 10 nM

COc1c(-c2cnn(C3CN(Cc4cccc(C(=O)N5CCC(F)(F)C5)n4)C3)c2)cccc1-c1cnc(N)c2cnc(NC(=O)C3CC3)cc12 [Example 19, N-(8-amino-5-(3-(1-(1-((6-(3,3-difluoro-pyrrolidine-1-carbonyl)pyridin-2-yl)methyl)azetidin-3-yl)-1H-pyrazol-4-yl)-2-methoxy-phenyl)-2,7-naphthyridin-3-yl)cyclopropane-carboxamide]
IC50 [1]: 10 to 100 nM
IC50 [2]: ≤ 10 nM

COc1c(-c2cnn(C3CN(Cc4cccc(C(=O)N5CCOCC5)n4)C3)c2)cccc1-c1cnc(N)c2cnc(NC(=O)C3CC3)cc12 [Example 20, N-(8-amino-5-(2-methoxy-3-(1-(1-((6-(morpholine-4-carbonyl)pyridin-2-yl)methyl)azetidin-3-yl)-1H-pyrazol-4-yl)phenyl)-2,7-naphthyridin-3-yl)cyclopropane-carboxamide]
IC50 [1]: 100 to 500 nM
IC50 [2]: ≤ 10 nM

COc1c(-c2cnn(C3CN(Cc4ccccn4)C3)c2)cccc1-c1cnc(N)c2cnc(NC(=O)C3CC3)cc12 [Example 21, N-(8-Amino-5-(2-methoxy-3-(1-(1-(pyridin-2-ylmethyl)azetidin-3-yl)-1H-pyrazol-4-yl)phenyl)-2,7-naphthyridin-3-yl)cyclopropanecarboxamide]
IC50 [1]: 100 to 500 nM
IC50 [2]: ≤ 10 nM

COC(=O)c1cccc(CN2CC(n3cc(-c4cccc(-c5cnc(NC(C)=O)c6cnc(NC(=O)C7CC7)cc56)c4OC)cn3)C2)n1 [Example 22, Methyl 6-((3-(4-(3-(1-acetamido-6-(cyclopropanecarboxamido)-2,7-naphthyridin-4-yl)-2-methoxyphenyl)-1H-pyrazol-1-yl)azetidin-1-yl)methyl)picolinate]
IC50 [1]: > 1000 nM
IC50 [2]: ≤ 10 nM

CNc1ncc(-c2cccc(-c3ccc(C(=O)N(C)Cc4ccccn4)nc3)c2OC)c2cc(NC(=O)C3CC3)ncc12 [Example 23, 5-(3-(6-(Cyclopropanecarboxamido)-1-(methylamino)-2,7-naphthyridin-4-yl)-2-methoxyphenyl)-N-methyl-N-(pyridin-2-ylmethyl)picolinamide]
IC50 [1]: > 1000 nM
IC50 [2]: 10 to 100 nM

CNc1ncc(-c2cccc(-c3cnn(C4CN(CC56CCCC(C(=O)N(C)C)(C5)C6)C4)c3)c2OC)c2cc(NC(=O)C3CC3)ncc12 [Example 24, 5-((3-(4-(3-(6-(Cyclopropanecarboxamido)-1-(methylamino)-2,7-naphthyridin-4-yl)-2-methoxyphenyl)-1H-pyrazol-1-yl)azetidin-1-yl)methyl)-N,N-dimethylbicyclo[3.1.1]heptane-1-carboxamide]
IC50 [1]: > 1000 nM
IC50 [2]: 10 to 100 nM
